This is an account of results in ChEMBL document CHEMBL5029183 (J Med Chem, 2021).

The term Ki denotes the dissociation constant of the complex between target and ligand, obtained from inhibition or displacement. A high value points to a looser hold on the target.

Calls of active or inactive are those of the source.

For assay [1], the system named is Mus musculus. Nature of the assay: Antinociceptive tolerance in Kunming mouse pretreated with compound for 3 hrs followed by challenge with second dose of compound at 20 nmol, icv and measured after 1 to 1.5 hrs by radiant heat paw withdrawal test. It counts as functional, organism-based. The settings on record: time 4-4.5 hrs.
Assay [2] relates to Mus musculus. Nature of the assay: Antiallodynic activity in Kunming mouse model of spared nerve injury-induced neuropathic pain assessed as increase in paw withdrawal threshold at 0.67 to 6.7 nmol, icv by von Frey test. It counts as functional, organism-based. The settings on record: dose 0.67-6.7 nmol, time min <=50, TDE = time-dependent effect.
Assay [3] concerns Mus musculus. The experiment in a line: Antinociceptive activity in Kunming mouse model assessed as increase in paw withdrawal latency at 10 micromol/kg, sc pretreated with icv dosed naloxone for 5 mins followed by compound addition by radiant heat paw withdrawal assay. It counts as functional, organism-based. The conditions noted are these: dose 10.0 µmol/kg.
Assay [4] deals with Mus musculus. The experiment in a line: Antinociceptive activity in Kunming mouse model assessed as increase in paw withdrawal latency at 10 micromol/kg, sc pretreated with sc dosed naloxone for 5 mins followed by compound addition by radiant heat paw withdrawal assay. It is filed as functional, organism-based. The conditions noted are these: dose 10.0 µmol/kg.
Assay [5] relates to Mus musculus. The experiment in a line: Chronic antinociceptive tolerance in Kunming mouse assessed as maximum possible effect pretreated with compound followed by repeated compound addition at 20 nmol, icv once daily for 7 days and measured after 10 mins by radiant heat paw withdrawal test. The settings on record: time 7 day. It counts as functional.
In assay [6] the test system is Mus musculus. The experiment in a line: Antiallodynic activity in Kunming mouse model of spared nerve injury-induced neuropathic pain assessed as increase in paw withdrawal threshold at 0.67 to 6.7 nmol, icv at 10 mins by von Frey test. It is filed as functional, organism-based. The conditions noted are these: dose 0.67-6.7 nmol.
Assay [7] addresses Mu-type opioid receptor (Rattus norvegicus, UniProt P33535). Nature of the assay: Displacement of [3H]DAMGO from MOR in Wistar rat brain membranes measured after 1 hr by scintillation counting method. It is filed as cell membranes, Membrane. For orientation: Loss of bound radioactivity is the signal in a displacement assay; it reports binding, not function.
For assay [8], the system named is Mus musculus. Nature of the assay: Antinociceptive activity in Kunming mouse model assessed as increase in paw withdrawal latency at 20 nmol, icv pretreated for 30 mins with nor-BNI followed by compound addition and measured upto 10 mins by radiant heat paw withdrawal assay. It is filed as functional, organism-based. The settings on record: time min <=10.
The subject of assay [9] is Mus musculus. Nature of the assay: Antinociceptive activity in Kunming mouse model assessed as increase in paw withdrawal latency at 20 nmol, icv pretreated for 20 mins with naloxonazine followed by compound addition and measured upto 10 mins by radiant heat paw withdrawal assay. It counts as functional, organism-based. The settings on record: time min <=10.
For assay [10], the system named is Mus musculus. Nature of the assay: Antiallodynic activity in Kunming mouse model of CFA-induced inflammatory pain assessed as increase in ipsilateral withdrawal threshold at 0.67 to 6.7 nmol, icv measured at 10 to 50 mins by von Frey test. The conditions noted are these: dose 0.67-6.7 nmol, time 10-50 min. It counts as functional, organism-based.
Assay [11] deals with Delta-type opioid receptor (Rattus norvegicus, UniProt P33533). The experiment in a line: Displacement of [3H]DPDPE from DOR in Wistar rat brain membranes measured after 3 hrs by scintillation counting method. It counts as cell membranes, Membrane.
Delta-type opioid receptor, sequence (P33533 whole entry): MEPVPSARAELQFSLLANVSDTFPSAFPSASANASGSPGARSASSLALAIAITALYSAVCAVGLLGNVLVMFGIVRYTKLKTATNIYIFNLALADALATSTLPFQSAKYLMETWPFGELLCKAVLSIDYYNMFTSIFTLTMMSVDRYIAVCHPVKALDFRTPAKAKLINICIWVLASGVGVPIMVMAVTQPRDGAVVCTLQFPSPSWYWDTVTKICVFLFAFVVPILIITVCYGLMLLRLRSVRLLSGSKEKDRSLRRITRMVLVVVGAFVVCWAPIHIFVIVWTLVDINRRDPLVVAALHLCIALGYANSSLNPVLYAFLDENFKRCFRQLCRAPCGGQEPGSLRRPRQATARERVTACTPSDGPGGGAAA
Assay [12] is filed under the species Rattus norvegicus. Nature of the assay: Selectivity index, ratio of Ki for displacement of [3H]-U69593 from KOR in Wistar rat brain membranes to Ki for displacement of [3H]DAMGO from MOR in Wistar rat brain membranes. It is filed as cell membranes.
Assay [13] deals with Mus musculus. The experiment in a line: Antinociceptive activity in Kunming mouse model assessed as maximum possible effect at 10 micromol/kg, sc by radiant heat paw withdrawal assay. It is filed as functional. The settings on record: dose 10 µmol/kg.
The test system of assay [14] is Mus musculus. Nature of the assay: Antiallodynic activity in Kunming mouse model of CFA-induced inflammatory pain assessed as increase in ipsilateral withdrawal threshold at 10 micromol/kg, sc measured at 10 to 50 mins by von Frey test. It is filed as functional, organism-based. The conditions noted are these: dose 10.0 µmol/kg, time 10-50 min.
Assay [15] has as its system Mus musculus. Nature of the assay: Antinociceptive activity in Kunming mouse model assessed as increase in paw withdrawal latency at 0.67 to 20 nmol, icv by radiant heat paw withdrawal assay. It is filed as functional, organism-based. The conditions noted are these: dose 0.67-20 nmol, TDE = time-dependent effect.
Assay [16] relates to Mus musculus. Nature of the assay: Chronic antinociceptive tolerance in Kunming mouse pretreated with compound followed by repeated compound addition at 20 nmol, icv once daily for 7 days and measured after 10 mins by radiant heat paw withdrawal test. It is filed as functional, organism-based. The settings on record: time 7.0 day.

Mu-type opioid receptor, sequence (P33535 whole entry): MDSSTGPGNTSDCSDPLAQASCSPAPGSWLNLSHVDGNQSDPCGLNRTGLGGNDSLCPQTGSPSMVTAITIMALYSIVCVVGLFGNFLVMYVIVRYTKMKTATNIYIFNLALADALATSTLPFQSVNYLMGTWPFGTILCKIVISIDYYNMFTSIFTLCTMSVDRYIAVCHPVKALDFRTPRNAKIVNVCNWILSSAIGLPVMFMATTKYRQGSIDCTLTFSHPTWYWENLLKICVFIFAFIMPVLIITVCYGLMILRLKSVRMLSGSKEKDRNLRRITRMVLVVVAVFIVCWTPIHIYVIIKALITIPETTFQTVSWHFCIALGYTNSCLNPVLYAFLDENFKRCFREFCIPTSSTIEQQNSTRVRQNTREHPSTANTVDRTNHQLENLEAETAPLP

For the compound `Cc1cc(O)cc(C)c1C[C@H](N)C(=O)N[C@H]1CSSC[C@@H](C(=O)NCC(=O)N[C@H](CCCNC(=N)N)C(=O)N[C@H](CCCNC(=N)N)C(=O)O)NC(=O)[C@H](Cc2ccc(Cl)cc2)NC(=O)[C@H](Cc2ccccc2)NC1=O`, the outcome in [1], in assay [3], in assay [4], in assay [8] and in assay [9] was inactive. In addition, the Activity result in assay [2] and in assay [15] was “Tde” in each case. Moreover, the MPE was found to be 77.25% in assay [5] and 75.33% in assay [13]. The result in [6], in assay [10] and in [14] was Active. The Ki came out at 0.00606 µM in assay [7] and 4.27 µM in assay [11]. Moreover, the Ratio Ki in assay [12] is 710.

Take `Cc1cc(O)cc(C)c1C[C@H](N)C(=O)N[C@H]1CSSC[C@@H](C(=O)NCC(=O)N[C@H](CCCNC(=N)N)C(=O)N[C@H](CCCNC(=N)N)C(=O)O)NC(=O)[C@H](Cc2ccc(Cl)cc2)NC(=O)[C@H](Cc2c[nH]c3ccccc23)NC1=O`: the outcome in [1], in assay [3], in assay [4] and in assay [16] was inactive. Moreover, the Activity entry in [2] and in [15] was “Tde” throughout. The result in assay [6], in [8], in [9], in assay [10] and in [14] was Active. In addition, the figures for the Ki in [7] and in assay [11] were 0.00578 µM and 2.09 µM, respectively. For the same compound, the Ratio Ki in assay [12] is 548. Also, the MPE in [13] turned out to be 79.76%.
